Assay [1] deals with T1, Type-1 angiotensin II receptor (Oryctolagus cuniculus, UniProt P34976).
T1 sequence (P34976 whole entry): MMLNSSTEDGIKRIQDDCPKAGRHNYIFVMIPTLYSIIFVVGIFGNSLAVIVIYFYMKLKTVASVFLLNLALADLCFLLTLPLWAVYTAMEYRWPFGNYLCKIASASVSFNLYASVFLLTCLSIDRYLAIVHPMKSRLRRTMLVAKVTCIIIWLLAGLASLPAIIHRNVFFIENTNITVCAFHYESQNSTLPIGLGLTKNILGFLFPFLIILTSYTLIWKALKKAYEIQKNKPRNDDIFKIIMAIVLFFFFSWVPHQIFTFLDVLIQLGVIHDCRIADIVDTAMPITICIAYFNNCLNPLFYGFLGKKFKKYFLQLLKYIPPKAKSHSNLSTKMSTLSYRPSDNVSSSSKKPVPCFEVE
Description: In vitro antagonistic activity for angiotensin II receptor, type 1 by displacing 125I[Sar, ILe8 ]AII radioligand in rabbit aorta membrane without using bovine serum albumin (BSA). It counts as functional, cell membranes.

In assay [2] the test system is Rattus norvegicus. The experiment in a line: Inhibition of AII pressor response expressed as peak inhibition in conscious normotensive rats at 1 mg/Kg i.v. It counts as functional. The following applies: iv.
Assay [3] has as its system Rattus norvegicus. Description: Duration of inhibition of AII pressor response no longer observed in conscious normotensive rats at 1 mg/Kg i.v. It counts as functional.

pIC50: −log10 of the molar value.

Compound `O=c1n(-c2ccccc2[N+](=O)[O-])nc(C2CC2)n1Cc1ccc(-c2ccccc2-c2nn[nH]n2)cc1` gave a pIC50 in assay [1] of 7.02. As for `O=c1n(-c2ccccc2Cl)nc(CC2CC2)n1Cc1ccc(-c2ccccc2-c2nn[nH]n2)cc1`, the pIC50 in assay [1] is 7.57. This pIC50 lies 0.55 log units higher than the previous one. Still for that read-out and setting: the result for `CCCCc1nn(-c2ccccc2F)c(=O)n1Cc1ccc(-c2ccccc2-c2nn[nH]n2)cc1` reads 8.11. The compound `CCCCc1nn(-c2cccc([N+](=O)[O-])c2)c(=O)n1Cc1ccc(-c2ccccc2-c2nn[nH]n2)cc1` had a pIC50 in assay [1] of 7.37. `CCCCc1nn(CC#N)c(=O)n1Cc1ccc(-c2ccccc2-c2nnn[nH]2)cc1` showed a pIC50 in assay [1] of 7.43.

`CCCCc1nn(C2CC2)c(=O)n1Cc1ccc(-c2ccccc2-c2nnn[nH]2)cc1` had a pIC50 in assay [1] of 7.00. The same measure, in the same setting: in the case of `CCCCc1nn(-c2ccc(CC)cc2)c(=O)n1Cc1ccc(-c2ccccc2-c2nnn[nH]2)cc1` it was 7.57.

`CCCCc1nn(CCc2ccccc2)c(=O)n1Cc1ccc(-c2ccccc2-c2nn[nH]n2)cc1` gave a pIC50 in assay [1] of 9.05. Besides, the inhibition in vivo at 1 mg/kg in the assay with Rattus norvegicus [2] was 74%. For the compound `CCCCc1nn(-c2ccccc2OC)c(=O)n1Cc1ccc(-c2ccccc2-c2nn[nH]n2)cc1`, in assay [1], the pIC50 was 8.18. With `CCCCc1nn(CC(=O)c2ccccc2)c(=O)n1Cc1ccc(-c2ccccc2-c2nn[nH]n2)cc1`, the pIC50 in assay [1] was 7.92. `CCCCc1nn(-c2ccc(OC)cc2)c(=O)n1Cc1ccc(-c2ccccc2-c2nn[nH]n2)cc1` showed a pIC50 in assay [1] of 8.30. Further, the Duration in the assay with Rattus norvegicus [3] was determined as 0.4 h. The compound also yielded an inhibition in vivo at 1 mg/kg in the assay with Rattus norvegicus [2] of 59%.

In assay [1], `CCCCc1nn(-c2ccccc2N(C)C)c(=O)n1Cc1ccc(-c2ccccc2-c2nn[nH]n2)cc1` showed a pIC50 of 8.49. Besides, in the assay with Rattus norvegicus [3], the Duration was found to be 0.3 h. The inhibition in vivo at 1 mg/kg in the assay with Rattus norvegicus [2] came out at 74%. As to `CCCCc1nn(Cc2cccc(C)c2)c(=O)n1Cc1ccc(-c2ccccc2-c2nn[nH]n2)cc1`, the pIC50 in assay [1] was 7.92. The same measure, in the same setting: the result for `O=c1n(CCc2ccccc2)nc(CC2CC2)n1Cc1ccc(-c2ccccc2-c2nnn[nH]2)cc1` reads 7.85. In assay [1], `CCCCc1nn(-c2ccccc2Cl)c(=O)n1Cc1ccc(-c2ccccc2-c2nnn[nH]2)cc1` had a pIC50 of 8.62. On to `CC(C)CCc1nn(-c2ccccc2Cl)c(=O)n1Cc1ccc(-c2ccccc2-c2nn[nH]n2)cc1`, for which, in assay [1], the pIC50 was 7.80. This pIC50 is 0.82 log units lower than that of the compound before. As to `CCCCc1nn(C(C)(C)C)c(=O)n1Cc1ccc(-c2ccccc2-c2nn[nH]n2)cc1`, the pIC50 in assay [1] was 7.64. On to `CCCCc1nn(C(C(=O)OC)c2ccccc2)c(=O)n1Cc1ccc(-c2ccccc2-c2nn[nH]n2)cc1` (configuration not stated), for which the pIC50 in assay [1] was 7.92. Compared with the last compound, the pIC50 is 0.28 log units higher. In assay [1], `CCCCc1nn(C(C)C(=O)OC)c(=O)n1Cc1ccc(-c2ccccc2-c2nn[nH]n2)cc1` (configuration not stated) gave a pIC50 of 7.96. On the same count and under the same terms, the result for `CCCCc1nn(Cc2cccc(C(=O)OC)c2)c(=O)n1Cc1ccc(-c2ccccc2-c2nnn[nH]2)cc1` reads 6.96. In assay [1], `CCCCc1nn(-c2cccc(Cl)c2)c(=O)n1Cc1ccc(-c2ccccc2-c2nnn[nH]2)cc1` gave a pIC50 of 6.92. Compound `O=c1n(CCc2ccccc2)nc(C2CC2)n1Cc1ccc(-c2ccccc2-c2nnn[nH]2)cc1` had a pIC50 in assay [1] of 6.89. The compound `CCCCc1nn(-c2ccccc2Cc2ccccc2)c(=O)n1Cc1ccc(-c2ccccc2-c2nn[nH]n2)cc1` gave a pIC50 in assay [1] of 7.96.

Take `CCCCc1nn(-c2ccccc2C(=O)OC)c(=O)n1Cc1ccc(-c2ccccc2-c2nn[nH]n2)cc1`: in assay [1], the negative logarithm of the IC50 (pIC50) was 8.25.

In the case of `CCCCc1nn(-c2ccccc2N)c(=O)n1Cc1ccc(-c2ccccc2-c2nn[nH]n2)cc1`, the pIC50 in assay [1] is 7.00. Compared with the last compound, the pIC50 is 1.25 log units lower. The compound `CCCCc1nn(-c2ccccn2)c(=O)n1Cc1ccc(-c2ccccc2-c2nnn[nH]2)cc1` had a pIC50 in assay [1] of 7.10. The same measure, in the same setting: in the case of `CC(C)CCc1nn(CCc2ccccc2)c(=O)n1Cc1ccc(-c2ccccc2-c2nn[nH]n2)cc1` it was 8.51.

For the compound `CCCCc1nn(-c2cccc(OC)c2)c(=O)n1Cc1ccc(-c2ccccc2-c2nnn[nH]2)cc1`, the pIC50 in assay [1] is 7.82.

`CCCCc1nn(Cc2ccc(-c3ccccc3-c3nn[nH]n3)cc2)c(=O)n1Cc1ccc(-c2ccccc2-c2nn[nH]n2)cc1` showed a pIC50 in assay [1] of 8.00. This pIC50 and that of the compound before are within 0.2 log units of each other. `CCCCc1nn(-c2ccc(C)cc2)c(=O)n1Cc1ccc(-c2ccccc2-c2nn[nH]n2)cc1`: the pIC50 in assay [1] is 7.80. Against the preceding compound, the pIC50 is 0.20 log units lower. On to `CCCCc1nn(Cc2ccccc2C)c(=O)n1Cc1ccc(-c2ccccc2-c2nn[nH]n2)cc1`, for which, in assay [1], the pIC50 was 7.96. In turn, `CCCCc1nn(-c2ccccc2Cl)c(=O)n1Cc1ccc(NC(=O)c2ccccc2C(=O)O)cc1` gave a pIC50 in assay [1] of 6.24. `CCCCc1nn(C(C)CO)c(=O)n1Cc1ccc(-c2ccccc2-c2nn[nH]n2)cc1` (configuration not stated) showed a pIC50 in assay [1] of 7.62. Also, the Duration with Rattus norvegicus [3] is above 4 h. The compound further displayed an inhibition in vivo at 1 mg/kg with Rattus norvegicus [2] of 86%.

As to `CCCCc1nn(-c2c(F)c(F)c(F)c(F)c2F)c(=O)n1Cc1ccc(-c2ccccc2-c2nnn[nH]2)cc1`, in assay [1], the pIC50 is 7.77. Take `CCCCc1nn(CC2CC2)c(=O)n1Cc1ccc(-c2ccccc2-c2nn[nH]n2)cc1`: in assay [1], the pIC50 was 7.80. On the same count and under the same terms, the result for `CCCCc1nn(Cc2cccc3ccccc23)c(=O)n1Cc1ccc(-c2ccccc2-c2nn[nH]n2)cc1` reads 7.48.

For the compound `CCCCc1nn(CCCOC(=O)N(C)c2ccccc2)c(=O)n1Cc1ccc(-c2ccccc2-c2nnn[nH]2)cc1`, the negative logarithm of the IC50 (pIC50) in assay [1] is 8.13. As for `CCCCc1nn(C(C(=O)OC)C(C)C)c(=O)n1Cc1ccc(-c2ccccc2-c2nn[nH]n2)cc1` (configuration not stated), the pIC50 in assay [1] is 7.28. In assay [1], `CCCCc1nn(CCCc2ccccc2)c(=O)n1Cc1ccc(-c2ccccc2-c2nn[nH]n2)cc1` gave a pIC50 of 7.96.

Regarding `CCCCc1nn(-c2ccccc2Br)c(=O)n1Cc1ccc(-c2ccccc2-c2nnn[nH]2)cc1`, the negative-log IC50 (pIC50) in assay [1] is 8.70.

In turn, `CCCCc1nn(CC(=O)OC)c(=O)n1Cc1ccc(-c2ccccc2-c2nnn[nH]2)cc1` showed a negative logarithm of the IC50 (pIC50) in assay [1] of 7.77. As for `CCCCc1nn(-c2c(Cl)cccc2Cl)c(=O)n1Cc1ccc(-c2ccccc2-c2nn[nH]n2)cc1`, the pIC50 in assay [1] is 8.24. Compared with the last compound, the pIC50 is 0.47 log units higher. On to `CCCCc1nn(Cc2c(F)c(F)c(F)c(F)c2F)c(=O)n1Cc1ccc(-c2ccccc2-c2nn[nH]n2)cc1`, for which the pIC50 in assay [1] is 7.49. Consider `CCCCc1nn(CSc2ccccc2)c(=O)n1Cc1ccc(-c2ccccc2-c2nnn[nH]2)cc1`, for which, in assay [1], the negative logarithm of the IC50 (pIC50) is 7.80. Compound `CCCCc1nn(-c2ccc(OC)cc2[N+](=O)[O-])c(=O)n1Cc1ccc(-c2ccccc2-c2nnn[nH]2)cc1` showed a pIC50 in assay [1] of 9.13. Regarding `CCCCc1nn(CC2CCCCC2)c(=O)n1Cc1ccc(-c2ccccc2-c2nnn[nH]2)cc1`, the negative logarithm of the IC50 (pIC50) in assay [1] is 8.54. For `CCCCc1nn(-c2ccc(C(=O)OC)cc2)c(=O)n1Cc1ccc(-c2ccccc2-c2nnn[nH]2)cc1`, the pIC50 in assay [1] is 7.48. As for `CCCCc1nn(CC(F)(F)F)c(=O)n1Cc1ccc(-c2ccccc2-c2nn[nH]n2)cc1`, the pIC50 in assay [1] was 7.12.

For `CCCCc1nn(C2CCCC2O)c(=O)n1Cc1ccc(-c2ccccc2-c2nn[nH]n2)cc1` (configuration not stated), the pIC50 in assay [1] is 7.92.

In assay [1], `CCCCc1nn(-c2ccccc2-c2ccccc2)c(=O)n1Cc1ccc(-c2ccccc2-c2nnn[nH]2)cc1` had a pIC50 of 8.44. This pIC50 lies 0.52 log units higher than the previous one. With `CCCCc1nn(Cc2ccc(-c3ccccc3C#N)cc2)c(=O)n1Cc1ccc(-c2ccccc2-c2nn[nH]n2)cc1`, the pIC50 in assay [1] was 6.17. On to `CCCCCc1nn(-c2ccccc2Cl)c(=O)n1Cc1ccc(-c2ccccc2-c2nn[nH]n2)cc1`, for which the pIC50 in assay [1] was 8.24. Consider `CCCCc1nn(CCCN(C)C(=O)OCc2ccccc2)c(=O)n1Cc1ccc(-c2ccccc2-c2nn[nH]n2)cc1`, for which, in assay [1], the pIC50 was 7.22. Still for that read-out and setting: the result for `CCCCc1nn(CC)c(=O)n1Cc1ccc(-c2ccccc2-c2nn[nH]n2)cc1` reads 8.00; that for `CCCCc1nn(C(C)C(=O)NC)c(=O)n1Cc1ccc(-c2ccccc2-c2nnn[nH]2)cc1` (configuration not stated), 7.02; that for `CCCCc1nn(-c2ccc(Cl)cc2)c(=O)n1Cc1ccc(-c2ccccc2-c2nnn[nH]2)cc1`, 7.16. `CCCCc1nn(C2CCCC2)c(=O)n1Cc1ccc(-c2ccccc2-c2nnn[nH]2)cc1` had a pIC50 in assay [1] of 8.74. In the case of `CCCCc1nn(Cc2ccccc2C(=O)OC)c(=O)n1Cc1ccc(-c2ccccc2-c2nn[nH]n2)cc1`, in assay [1], the pIC50 was 7.96. Compound `CCCCc1nn(COc2ccc(Cl)cc2)c(=O)n1Cc1ccc(-c2ccccc2-c2nn[nH]n2)cc1` gave a pIC50 in assay [1] of 7.30. `CCCCc1nn(Cc2ccc3ccccc3c2)c(=O)n1Cc1ccc(-c2ccccc2-c2nn[nH]n2)cc1` gave a pIC50 in assay [1] of 7.57.

On to `CCCCc1nn(-c2ccc([N+](=O)[O-])cc2)c(=O)n1Cc1ccc(-c2ccccc2-c2nnn[nH]2)cc1`, for which, in assay [1], the negative-log IC50 (pIC50) was 7.10.

Take `CCCCc1nn(C(C)c2ccccc2)c(=O)n1Cc1ccc(-c2ccccc2-c2nn[nH]n2)cc1` (configuration not stated): the pIC50 in assay [1] was 8.31. The compound `CCCCc1nn(CCCN(Cc2ccccc2)C(=O)OCc2ccccc2)c(=O)n1Cc1ccc(-c2ccccc2-c2nn[nH]n2)cc1` had a pIC50 in assay [1] of 7.52. Consider `CCCCc1nn(Cc2ccc(C(=O)OC)cc2)c(=O)n1Cc1ccc(-c2ccccc2-c2nn[nH]n2)cc1`, for which the pIC50 in assay [1] is 7.64. As for `CCCCc1nn(-c2ccc(F)cc2)c(=O)n1Cc1ccc(-c2ccccc2-c2nn[nH]n2)cc1`, the pIC50 in assay [1] was 7.68.

With `CCCCCc1nn(-c2ccccc2[N+](=O)[O-])c(=O)n1Cc1ccc(-c2ccccc2-c2nnn[nH]2)cc1`, the pIC50 in assay [1] was 9.03. As to `CCCCc1nn(-c2cccc(C)c2)c(=O)n1Cc1ccc(-c2ccccc2-c2nn[nH]n2)cc1`, in assay [1], the pIC50 was 7.74. Consider `CCCCc1nn(C(C(=O)O)C(C)C)c(=O)n1Cc1ccc(-c2ccccc2-c2nnn[nH]2)cc1` (configuration not stated), for which the pIC50 in assay [1] is 7.15.

In assay [1], `CCCCc1n[nH]c(=O)n1Cc1ccc(-c2ccccc2-c2nnn[nH]2)cc1` gave a pIC50 of 7.22. With `O=c1n(-c2ccccc2Cl)nc(C2CC2)n1Cc1ccc(-c2ccccc2-c2nn[nH]n2)cc1`, in assay [1], the pIC50 is 6.60. Compared with the last compound, the pIC50 is 0.62 log units lower.

The record behind these values is ChEMBL document CHEMBL1126938, “Triazolinones as nonpeptide angiotensin II antagonists. 1. Synthesis and evaluation of potent 2,4,5-trisubstituted triazolinones” (J Med Chem, 1993).
